Reference: ChEMBL document CHEMBL1201862, “PubChem BioAssay data set” (2004)
Active and inactive are the calls of the source.

Key:
Bcl-2-related protein A1 [1] = target: T1, Bcl-2-related protein A1 (Mus musculus, UniProt Q07440); assay: small-molecule antagonists of Bfl-1/BH3 interaction – biochemical, TR-FRET, mouse Bfl-1, confirmation (AID 621);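 also: TR-FRET binding of GST-Bfl-1 to FITC-labelled Bid peptide via terbium antibody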
T1 sequence (Q07440 whole entry): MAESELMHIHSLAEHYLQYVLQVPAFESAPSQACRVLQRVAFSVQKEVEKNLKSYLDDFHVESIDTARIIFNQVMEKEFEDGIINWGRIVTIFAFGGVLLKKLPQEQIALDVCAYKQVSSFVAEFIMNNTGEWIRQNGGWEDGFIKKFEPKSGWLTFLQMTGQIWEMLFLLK

Bcl-2-related protein A1 [2] = target: T1, Bcl-2-related protein A1; assay: Bfl-1 binding inhibitors, SAR follow-up, biochemical, fluorescence polarization (AID 1070)
[3] = viability loss in HepG2 hepatoma cells – cell-based, ATP luminescence, cherry-pick, activator set 2, cytotoxicity control, dose response (AID 1053143); format: functional
[4] = target: Induced myeloid leukemia cell differentiation protein Mcl-1 (Homo sapiens, UniProt Q07820); format: functional
fMet-Leu-Phe receptor = fMet-Leu-Phe receptor (Homo sapiens, UniProt P21462); assay: formyl peptide receptor binders – dose response (AID 519); format: functional
Cytochrome P450 3A4 = Cytochrome P450 3A4 (Homo sapiens, UniProt P08684);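 also: CYP3A4 tested as one member of a cytochrome P450 panel screen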
Caspase-3 = target: T2, Caspase-3 (Homo sapiens, UniProt P42574); format: functional;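 also: Dose-response selectivity test against caspase-3 for candidate inhibitors of sentrin-specific proteases (SENPs)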
T2 sequence (P42574 whole entry): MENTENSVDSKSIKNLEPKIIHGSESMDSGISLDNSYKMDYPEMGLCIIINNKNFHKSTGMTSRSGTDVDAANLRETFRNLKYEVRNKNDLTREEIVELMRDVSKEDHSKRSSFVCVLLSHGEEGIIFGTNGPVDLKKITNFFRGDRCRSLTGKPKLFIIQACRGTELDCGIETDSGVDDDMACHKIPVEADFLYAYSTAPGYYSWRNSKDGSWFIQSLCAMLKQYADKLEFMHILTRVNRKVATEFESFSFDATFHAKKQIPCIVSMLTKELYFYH

[5] = target: T3, Sentrin-specific protease 7 (Homo sapiens, UniProt Q9BQF6); format: functional;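 also: Luminescence-based dose-response confirmation of ultra-high-throughput screening hits, measuring inhibition of SENP7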
T3 sequence (Q9BQF6 whole entry): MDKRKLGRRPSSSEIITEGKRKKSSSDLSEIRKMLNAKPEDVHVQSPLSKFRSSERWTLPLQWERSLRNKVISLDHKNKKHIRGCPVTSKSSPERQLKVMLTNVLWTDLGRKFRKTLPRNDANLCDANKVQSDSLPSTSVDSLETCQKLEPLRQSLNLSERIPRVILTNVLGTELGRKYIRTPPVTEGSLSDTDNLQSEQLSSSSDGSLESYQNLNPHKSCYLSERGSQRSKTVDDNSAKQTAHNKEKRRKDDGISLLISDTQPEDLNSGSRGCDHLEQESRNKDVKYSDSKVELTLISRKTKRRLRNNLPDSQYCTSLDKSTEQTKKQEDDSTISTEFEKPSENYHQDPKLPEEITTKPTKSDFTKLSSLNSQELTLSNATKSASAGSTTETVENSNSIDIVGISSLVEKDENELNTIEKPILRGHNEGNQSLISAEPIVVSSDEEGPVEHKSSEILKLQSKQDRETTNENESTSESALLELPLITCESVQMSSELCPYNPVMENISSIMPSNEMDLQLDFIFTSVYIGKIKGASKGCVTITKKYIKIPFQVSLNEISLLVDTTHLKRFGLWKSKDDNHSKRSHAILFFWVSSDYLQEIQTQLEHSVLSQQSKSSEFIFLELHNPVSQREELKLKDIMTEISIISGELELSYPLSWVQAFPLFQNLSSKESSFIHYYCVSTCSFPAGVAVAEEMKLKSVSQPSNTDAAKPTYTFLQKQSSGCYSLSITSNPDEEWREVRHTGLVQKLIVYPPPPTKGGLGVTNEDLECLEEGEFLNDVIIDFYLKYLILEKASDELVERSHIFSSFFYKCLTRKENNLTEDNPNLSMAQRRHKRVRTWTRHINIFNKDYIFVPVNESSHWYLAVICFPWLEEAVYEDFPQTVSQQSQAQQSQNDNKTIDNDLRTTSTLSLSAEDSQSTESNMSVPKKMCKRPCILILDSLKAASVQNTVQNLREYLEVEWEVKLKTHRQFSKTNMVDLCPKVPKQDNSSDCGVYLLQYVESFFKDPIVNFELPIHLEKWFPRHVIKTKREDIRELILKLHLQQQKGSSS

[6] = target: T4, Sentrin-specific protease 6 (Homo sapiens, UniProt Q9GZR1); format: functional;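 also: Luminescence-based dose-response confirmatory assay of SENP6 inhibition, following up an ultra-high-throughput screen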
T4 sequence (Q9GZR1 whole entry): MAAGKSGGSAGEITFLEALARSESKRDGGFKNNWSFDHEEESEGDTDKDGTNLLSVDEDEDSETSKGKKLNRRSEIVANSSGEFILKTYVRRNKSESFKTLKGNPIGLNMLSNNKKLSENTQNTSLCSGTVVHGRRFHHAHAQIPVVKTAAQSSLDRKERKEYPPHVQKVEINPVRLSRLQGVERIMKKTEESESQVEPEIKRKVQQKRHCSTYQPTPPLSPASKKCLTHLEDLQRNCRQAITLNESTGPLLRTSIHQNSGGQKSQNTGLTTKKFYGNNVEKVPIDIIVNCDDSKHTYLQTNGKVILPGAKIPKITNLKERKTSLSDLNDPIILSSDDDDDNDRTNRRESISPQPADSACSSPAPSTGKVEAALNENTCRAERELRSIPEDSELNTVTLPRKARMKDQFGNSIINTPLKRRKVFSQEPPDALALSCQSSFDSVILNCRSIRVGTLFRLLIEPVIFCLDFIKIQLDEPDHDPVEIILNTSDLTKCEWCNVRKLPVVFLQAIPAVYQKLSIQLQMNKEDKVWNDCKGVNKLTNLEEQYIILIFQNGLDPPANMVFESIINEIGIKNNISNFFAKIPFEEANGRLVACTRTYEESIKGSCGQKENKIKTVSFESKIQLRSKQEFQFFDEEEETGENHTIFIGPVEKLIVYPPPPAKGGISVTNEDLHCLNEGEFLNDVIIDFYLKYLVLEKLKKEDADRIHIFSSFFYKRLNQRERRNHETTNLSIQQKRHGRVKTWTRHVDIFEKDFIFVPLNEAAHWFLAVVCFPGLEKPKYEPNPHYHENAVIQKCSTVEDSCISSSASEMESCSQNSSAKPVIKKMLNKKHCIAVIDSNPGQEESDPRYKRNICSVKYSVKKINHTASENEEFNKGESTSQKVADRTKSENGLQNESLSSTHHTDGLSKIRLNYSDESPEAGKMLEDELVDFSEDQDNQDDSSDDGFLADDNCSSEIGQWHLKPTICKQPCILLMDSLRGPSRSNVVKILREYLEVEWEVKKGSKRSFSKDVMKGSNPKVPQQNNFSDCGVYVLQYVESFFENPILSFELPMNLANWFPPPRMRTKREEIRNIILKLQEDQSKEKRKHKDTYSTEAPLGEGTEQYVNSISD

[7] = target: T5, Sentrin-specific protease 8 (Homo sapiens, UniProt Q96LD8); format: functional;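 also: luminescence read-out of SENP8 inhibition, dose-response confirmation following an ultra-high-throughput screen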
T5 sequence (Q96LD8 whole entry): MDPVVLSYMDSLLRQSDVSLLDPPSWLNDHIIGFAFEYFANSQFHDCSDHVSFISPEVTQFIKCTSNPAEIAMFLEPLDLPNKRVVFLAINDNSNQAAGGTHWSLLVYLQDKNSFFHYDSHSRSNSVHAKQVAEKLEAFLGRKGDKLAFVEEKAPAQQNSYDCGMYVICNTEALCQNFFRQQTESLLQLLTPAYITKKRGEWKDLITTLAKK

[8] = target: Fructose-bisphosphate aldolase (Mycobacterium tuberculosis, UniProt P9WQA3); assay: Fluorescence-based biochemical high throughput dose response assay for inhibitors of the fructose-bisphosphate aldolase (FBA) of M. tuberculosis.; format: functional
[9] = Counterscreen for […] of the human trace amine associated receptor 1 (TAAR1): Fluorescence-based cell-based high throughput dose response assay to identify nonselective Ga16 agonists.; format: functional
[10] = target: T6, Trace amine-associated receptor 1 (Homo sapiens, UniProt Q96RJ0); assay: Fluorescence-based cell-based high throughput dose response assay to identify antagonists of the human trace amine associated receptor 1 (TAAR1).; format: functional
T6 sequence (Q96RJ0 whole entry): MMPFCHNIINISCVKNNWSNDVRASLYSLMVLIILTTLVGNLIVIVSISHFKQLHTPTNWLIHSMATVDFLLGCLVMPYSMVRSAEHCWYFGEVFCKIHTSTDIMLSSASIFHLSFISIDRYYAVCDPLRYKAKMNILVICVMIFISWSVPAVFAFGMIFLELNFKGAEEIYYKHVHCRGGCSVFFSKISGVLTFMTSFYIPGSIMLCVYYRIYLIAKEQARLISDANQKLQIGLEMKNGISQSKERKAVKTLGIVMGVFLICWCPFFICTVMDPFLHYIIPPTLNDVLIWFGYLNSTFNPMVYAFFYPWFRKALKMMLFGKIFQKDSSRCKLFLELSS

[11] = Counterscreen for antagonists of the human trace amine associated receptor 1 (hTAAR1): Fluorescence-based cell-based high throughput dose response assay to identify nonselective Ga16 antagonists.; format: functional
[12] = target: T6, Trace amine-associated receptor 1; assay: Counterscreen for antagonists of the human trace amine associated receptor 1 (hTAAR1): Fluorescence-based cell-based high throughput dose response assay to identify TAAR1 Agonists.; format: functional

fMet-Leu-Phe receptor, sequence (P21462 whole entry): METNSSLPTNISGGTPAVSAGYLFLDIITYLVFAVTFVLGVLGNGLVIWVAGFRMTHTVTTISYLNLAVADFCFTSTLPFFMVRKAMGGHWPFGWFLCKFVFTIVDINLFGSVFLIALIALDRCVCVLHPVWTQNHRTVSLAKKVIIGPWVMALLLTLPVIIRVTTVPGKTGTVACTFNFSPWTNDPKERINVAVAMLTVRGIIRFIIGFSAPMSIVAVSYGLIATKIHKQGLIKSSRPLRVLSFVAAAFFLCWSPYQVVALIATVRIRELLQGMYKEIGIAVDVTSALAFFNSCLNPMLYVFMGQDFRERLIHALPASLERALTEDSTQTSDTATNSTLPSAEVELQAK
Cytochrome P450 3A4, sequence (P08684 whole entry): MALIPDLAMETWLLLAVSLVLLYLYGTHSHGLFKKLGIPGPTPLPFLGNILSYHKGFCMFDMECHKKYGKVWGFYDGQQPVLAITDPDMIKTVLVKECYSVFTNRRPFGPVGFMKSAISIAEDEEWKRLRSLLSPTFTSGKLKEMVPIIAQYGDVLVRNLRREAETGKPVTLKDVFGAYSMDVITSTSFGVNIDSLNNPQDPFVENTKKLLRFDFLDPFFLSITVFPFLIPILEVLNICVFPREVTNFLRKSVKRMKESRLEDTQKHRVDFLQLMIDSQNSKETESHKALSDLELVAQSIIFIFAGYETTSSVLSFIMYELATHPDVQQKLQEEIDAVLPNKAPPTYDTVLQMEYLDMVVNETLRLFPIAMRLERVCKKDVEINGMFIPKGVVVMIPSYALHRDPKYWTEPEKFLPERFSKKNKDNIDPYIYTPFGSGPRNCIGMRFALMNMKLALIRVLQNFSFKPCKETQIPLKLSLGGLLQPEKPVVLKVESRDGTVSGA
Fructose-bisphosphate aldolase, sequence (P9WQA3 whole entry): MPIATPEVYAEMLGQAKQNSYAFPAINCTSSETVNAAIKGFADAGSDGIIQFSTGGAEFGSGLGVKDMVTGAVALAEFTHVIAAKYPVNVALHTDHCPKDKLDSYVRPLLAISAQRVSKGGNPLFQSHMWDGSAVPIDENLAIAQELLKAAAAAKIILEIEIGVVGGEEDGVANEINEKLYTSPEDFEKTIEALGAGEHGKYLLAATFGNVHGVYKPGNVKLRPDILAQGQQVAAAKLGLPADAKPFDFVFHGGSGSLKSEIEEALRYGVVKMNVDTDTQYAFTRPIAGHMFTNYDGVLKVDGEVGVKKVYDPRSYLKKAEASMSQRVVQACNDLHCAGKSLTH
Induced myeloid leukemia cell differentiation protein Mcl-1, sequence (Q07820 whole entry): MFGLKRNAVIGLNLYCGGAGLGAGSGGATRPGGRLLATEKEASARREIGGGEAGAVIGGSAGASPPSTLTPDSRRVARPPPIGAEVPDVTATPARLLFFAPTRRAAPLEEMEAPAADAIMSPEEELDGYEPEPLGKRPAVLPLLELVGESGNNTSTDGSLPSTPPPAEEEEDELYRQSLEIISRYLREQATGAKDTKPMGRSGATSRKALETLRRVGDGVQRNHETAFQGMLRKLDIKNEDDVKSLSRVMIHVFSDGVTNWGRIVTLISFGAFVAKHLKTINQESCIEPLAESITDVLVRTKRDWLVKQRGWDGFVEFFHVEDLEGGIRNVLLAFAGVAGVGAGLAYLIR

**Q.** What does the source list for `COc1ncccc1-c1nnn(-c2ccc(F)cc2)n1`?
**A.** IC50 (Bcl-2-related protein A1 [1]): > 100 µM (not active); IC50 (Bcl-2-related protein A1 [2]): > 100 µM (not active); AC50 [3]: 26 µM (active)

**Q.** What does the source list for `O=C(NC1CCCCC1)c1sc(=S)n2c1[nH]c(=O)c1ccccc12`?
**A.** IC50 [4]: > 54 µM (active); Ki (fMet-Leu-Phe receptor): 40.6 µM (inactive); AC50 (Cytochrome P450 3A4): 0.794 µM (inconclusive)

**Q.** With `Cc1cccc(C2CC(c3ccc(Cl)cc3)Nc3nc(N)nn32)c1` (configuration not stated) as the compound, how does the Ki (fMet-Leu-Phe receptor) read?
**A.** The Ki was > 66.7 µM (inactive).

**Q.** Which AC50 [3] does the source give for `CCOc1ccc2oc(C(=O)Nc3cc(C)ccn3)c(C)c2c1` here?
**A.** The AC50 was 26 µM (active).

**Q.** Which results are given for `S=C(c1ccc(OCc2ccccc2)cc1)N1CCCC1`?
**A.** IC50 (Caspase-3): 8.38 µM (active); IC50 [5]: 14 µM (active); IC50 [6]: 11.1 µM (active); IC50 [7]: 3.69 µM (active); IC50 [8]: > 9.98 µM (inactive)

**Q.** Which results are given for `O=C(NCCn1cc(SCc2ccccc2F)c2ccccc21)c1c(F)cccc1F`?
**A.** EC50 [9]: > 29.9 µM (inactive); IC50 [10]: 3.49 µM (active); IC50 [11]: 38.4 µM (inactive); EC50 [12]: > 29.9 µM (inactive)
